Results published in US11261222B2, “Transdermal peptide with nuclear localization ability and use thereof” (SOOCHOW UNIVERSITY, priority 2017, dated 2022).
Where a SMILES comes first, the peptide text is derived from it. The star is where a group is joined. FITC = O=C1OC2(c3ccc(O)cc3Oc3cc(O)ccc32)c2ccc(NC(=S)*)cc21

Key:
[1] = tested on: skin of SD rats; experiment: transdermal penetration effect on back skin of SD rats, fluorescence microscopy of skin sections; assay type: in vivo; settings: 50 μL of 500 μmol/L FITC-labeled peptide solution applied on back skin, three hours
Protocol: The experiments were performed using 8-week old SD rats (body weight 250 g). The back of SD rats was shaved, and the FITC-labeled peptide and control peptide prepared in Example 1 were each dissolved in a phosphate buffer (PBS, pH=7.4) to prepare a solution having a concentration of 500 μmol/L. The SD rats were divided into three groups, including: 1) a control group, in which no polypeptide solution was applied on the back; 2) a control group, in which the peptide as shown in SEQ ID NO: 3 was applied on the dorsal epidermis of rats; and 3) a treatment group, in which the peptide as shown in SEQ ID NO: 1 was applied on the back skin of rats. The rats in Groups 2) and 3) were each applied with 50 μL of the polypeptide solution. After three hours, the polypeptide in the applied area was washed off; the SD rats were sacrificed, and the skin applied with the polypeptide was taken, frozen, sectioned, and then observed under a fluorescence microscope.

[2] = isoelectric point of the transdermal peptide; assay type: physicochemical

Q: Which “fluorescence in the dermal tissue of the skin” value [1] does the source give for `CC(C)C[C@H](NC(=O)[C@H](Cc1ccc(O)cc1)NC(=O)[C@H](CCCCN)NC(=O)[C@H](CCCCN)NC(=O)CNC(=O)[C@H](CO)NC(=O)[C@@H]1CCCN1C(=O)[C@H](CC(C)C)NC(=O)[C@H](CCC(=O)O)NC(=O)[C@H](CCCCN)NC(=O)[C@@H](NC(=O)[C@H](Cc1ccccc1)NC(=O)[C@@H](NC(=O)CNC(=O)[C@H](CCCCN)NC(=O)[C@@H]1CCCN1C(=O)[C@H](Cc1ccccc1)NC(=O)[C@H](CC(C)C)NC(=O)[C@H](CCCCN)NC(=O)[C@H](CCCCN)NC(=S)Nc1ccc2c(c1)C(=O)OC21c2ccc(O)cc2Oc2cc(O)ccc21)C(C)C)[C@@H](C)O)C(=O)N[C@@H](CCCNC(=N)N)C(=O)O` [peptide of the present invention] ({FITC}-KKLFPKGVFTKELPSGKKYLR-OH) here?
A: Its value is “clearly observed in the skin appendages of the dermis”.

Q: Which isoelectric point [2] does the source give for “transdermal peptide with a nuclear localization ability: transdermal peptide with amino acid sequence as shown in SEQ ID NO: 1, enters eukaryotic cells autonomously (KKLFPKGVFTKELPSGKKYLR; Transdermal peptide)” here?
A: Its isoelectric point is 10.92.

Q: Which “fluorescence in the dermal tissue of the skin” value [1] does the source give for `CC[C@H](C)[C@H](NC(=O)[C@H](CC(=O)O)NC(=O)[C@H](CCCCN)NC(=O)[C@H](CO)NC(=O)[C@H](Cc1c[nH]c2ccccc12)NC(=O)[C@H](C)NC(=O)[C@H](CC(C)C)NC(=O)[C@H](Cc1c[nH]cn1)NC(=O)[C@H](CC(=O)O)NC(=O)[C@H](CCC(=O)O)NC(=O)[C@@H](NC(=O)[C@H](CO)NC(=O)[C@H](CC(=O)O)NC(=O)[C@@H](NC(=O)[C@H](CO)NC(=O)[C@H](CC(C)C)NC(=O)[C@H](C)NC(=O)[C@@H](NC(=S)Nc1ccc2c(c1)C(=O)OC21c2ccc(O)cc2Oc2cc(O)ccc21)[C@@H](C)CC)[C@@H](C)CC)C(C)C)C(=O)N[C@@H](CC(N)=O)C(=O)N[C@@H](C)C(=O)O` [irrelevant control polypeptide, reference compound] ({FITC}-IALSIDSVEDHLAWSKDINA-OH) here?
A: The value was “no green fluorescence in the dermal tissue”.
